These results are taken from ChEMBL document CHEMBL5523739, “NN1213 - A Potent, Long-Acting, and Selective Analog of Human Amylin” (J Med Chem, 2024).

Activity calls are given as the source filed them. No cut-off for these calls is given here.

Data set [1] deals with T1, Amylin receptor AMY3; CALCR/RAMP3 (Homo sapiens, UniProt O60896+P30988).
T1 sequence (P30988 whole entry): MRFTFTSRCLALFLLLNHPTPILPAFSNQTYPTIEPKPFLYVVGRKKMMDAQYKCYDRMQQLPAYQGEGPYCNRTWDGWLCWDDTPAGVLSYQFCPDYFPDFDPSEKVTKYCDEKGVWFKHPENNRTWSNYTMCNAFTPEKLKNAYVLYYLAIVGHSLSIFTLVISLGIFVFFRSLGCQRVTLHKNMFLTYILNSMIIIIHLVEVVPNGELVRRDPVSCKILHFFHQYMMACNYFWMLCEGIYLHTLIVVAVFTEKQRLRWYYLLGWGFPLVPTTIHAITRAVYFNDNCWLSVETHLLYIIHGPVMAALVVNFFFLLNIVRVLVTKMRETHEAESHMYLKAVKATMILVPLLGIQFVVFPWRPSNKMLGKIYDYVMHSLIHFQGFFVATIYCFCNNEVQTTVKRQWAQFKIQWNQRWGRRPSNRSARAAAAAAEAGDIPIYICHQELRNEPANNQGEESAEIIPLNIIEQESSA
T1 sequence (O60896 whole entry): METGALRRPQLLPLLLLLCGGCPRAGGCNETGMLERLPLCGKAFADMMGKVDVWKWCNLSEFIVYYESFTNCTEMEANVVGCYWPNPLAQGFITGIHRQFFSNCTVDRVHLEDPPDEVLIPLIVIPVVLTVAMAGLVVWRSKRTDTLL
Kind of data set: Displacement of 125I-rat amylin from human AMY3R complex of CTR/RAMP3 expressed in Baby hamster kidney cell membrane incubated for 120 mins by SPA method. It is filed as cell membranes.

Data set [2] deals with T2, Calcitonin receptor (Homo sapiens, UniProt P30988).
T2 sequence (P30988 whole entry): T1 sequence (P30988 whole entry)
Kind of data set: Displacement of 125I-Calcitonin from human CTR expressed in Baby hamster kidney cell membrane incubated for 120 mins by SPA method. It is filed as cell membranes. On the technique in general: In a radioligand displacement assay an active substance lowers the binding of a labelled ligand.

Data set [3] addresses T3, Amylin receptor AMY3; CALCR/RAMP3 (Rattus norvegicus, UniProt P32214+Q9JJ73).
T3 sequence (P32214 whole entry): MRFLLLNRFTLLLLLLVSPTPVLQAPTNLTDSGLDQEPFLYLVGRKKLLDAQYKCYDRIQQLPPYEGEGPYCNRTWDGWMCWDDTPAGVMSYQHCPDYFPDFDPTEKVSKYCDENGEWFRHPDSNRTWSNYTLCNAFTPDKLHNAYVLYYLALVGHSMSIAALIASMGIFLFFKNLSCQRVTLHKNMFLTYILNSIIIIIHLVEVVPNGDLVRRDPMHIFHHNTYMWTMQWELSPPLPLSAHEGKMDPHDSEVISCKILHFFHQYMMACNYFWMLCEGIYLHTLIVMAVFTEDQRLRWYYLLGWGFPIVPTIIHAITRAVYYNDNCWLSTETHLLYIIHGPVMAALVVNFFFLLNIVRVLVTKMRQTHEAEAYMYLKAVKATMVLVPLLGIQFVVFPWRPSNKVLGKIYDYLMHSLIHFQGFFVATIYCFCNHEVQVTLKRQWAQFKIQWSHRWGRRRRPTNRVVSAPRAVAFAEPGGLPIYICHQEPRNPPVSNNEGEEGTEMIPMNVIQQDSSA
T3 sequence (Q9JJ73 whole entry): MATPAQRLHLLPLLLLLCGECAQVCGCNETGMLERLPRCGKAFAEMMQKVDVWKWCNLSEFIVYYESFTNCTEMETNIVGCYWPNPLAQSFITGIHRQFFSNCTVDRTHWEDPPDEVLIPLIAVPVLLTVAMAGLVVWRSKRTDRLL
Kind of data set: Displacement of 125I-rat amylin from rat AMY3R complex of CTR/RAMP3 expressed in Baby hamster kidney cell membrane incubated for 120 mins by SPA method. Format: cell membranes.

The target of data set [4] is T4, Calcitonin receptor (Rattus norvegicus, UniProt P32214).
T4 sequence (P32214 whole entry): T3 sequence (P32214 whole entry)
Kind of data set: Displacement of 125I-Calcitonin from rat CTR expressed in Baby hamster kidney cell membrane incubated for 120 mins by SPA method. Format: cell membranes.

Data set [5] in a line: Solubility of compound at pH 3 incubated overnight by UPLC analysis. The conditions noted are these: buffer. Format: physicochemical.
Data set [6] in a line: Solubility of compound at pH 6.5 incubated overnight by UPLC analysis. It is filed as physicochemical. The conditions noted are these: buffer.
Data set [7] deals with Rattus norvegicus. In words: Appetite suppressing activity in rat assessed as reduction in food intake at 30 nmol/kg, sc measured upto 24 hrs relative to control. Format: functional. Also on record: scale not given: the % may be the effect or the level left.
Data set [8] deals with Rattus norvegicus. In words: Appetite suppressing activity in rat assessed as reduction in food intake at 30 nmol/kg, sc measured for 24 to 48 hrs relative to control. Format: functional. Also on record: scale not given: the % may be the effect or the level left. The conditions noted are these: time 24-48 hrs.
Data set [9] is described as follows: […] bioavailability in rat at 2.5 nmol/kg, sc. Format: ADME, organism-based. The conditions noted are these: in vivo.
A short description of data set [10]: Terminal half life in rabbit at 2 nmol/kg, iv. Format: ADME, Oryctolagus cuniculus. The conditions noted are these: in vivo, read-out: beta t1/2 (converted).
Data set [11] is described as follows: Terminal half life in Gottingen minipig at 4.8 nmol/kg, iv. The conditions noted are these: pig, in vivo, read-out: beta t1/2 (converted). Format: ADME, Sus scrofa.
Data set [12] deals with Rattus norvegicus. In words: Appetite suppressing activity in rat assessed as reduction in food intake administered subcutaneously measured for 48 hrs. Format: functional, organism-based. Conditions: dose 3-100 nmol/kg, route sc.
In data set [13] the test system is Canis familiaris. Kind of data set: Appetite suppressing activity in dog assessed as reduction in food intake at 3 nmol/kg, sc measured for 48 hrs. The conditions noted are these: Canis lupus familiaris. Format: functional, organism-based.
Data set [14] concerns Canis familiaris. In words: Appetite suppressing activity in dog assessed as reduction in food intake at 300 nmol/kg, sc measured for 48 hrs relative to control. Format: functional, Canis lupus familiaris. Also on record: scale not given: the % may be the effect or the level left.
The subject of data set [15] is Canis familiaris. Kind of data set: Appetite suppressing activity in dog assessed as reduction in food intake at 30 nmol/kg, sc measured upto 7 days. Format: functional, organism-based. The conditions noted are these: Canis lupus familiaris, time <= 7.0 day.
Data set [16] can be described thus: Toxicity in dog assessed as vomiting at 3 to 300 nmol/kg, sc. Also on record: species or system Canis lupus familiaris. The conditions noted are these: in vivo, dose 3-300 nmol/kg.
Data set [17] has as its system Rattus norvegicus. In words: Appetite suppressing activity in HFD-fed DIO rat model assessed as reduction in food intake at 0.7 to 22 nmol/kg, sc qd measured for 1 to 2 hrs. Format: functional, organism-based. Conditions: dose 0.7-22 nmol/kg, time 1-2 hrs.
The test system of data set [18] is Rattus norvegicus. In words: Appetite suppressing activity in HFD-fed DIO rat model assessed as reduction in food intake at 0.7 nmol/kg, sc qd measured for 21 days relative to control. Also on record: scale not given: the % may be the effect or the level left. Format: functional. Conditions: time 21 day.
Data set [19] relates to Rattus norvegicus. In words: Appetite suppressing activity in HFD-fed DIO rat model assessed as reduction in body weight at 2.2 to 22 nmol/kg, sc qd measured for 21 days relative to control. Also on record: scale not given: the % may be the effect or the level left. Conditions: dose 2.2-22 nmol/kg, time 21 day. Format: functional.
In data set [20] the test system is Rattus norvegicus. In words: Appetite suppressing activity in HFD-fed DIO rat model assessed as reduction in food intake at 0.7 to 22 nmol/kg, sc qd measured after 15 days. It is filed as functional, organism-based. Conditions: dose 0.7-22 nmol/kg, time 15.0 day.
The subject of data set [21] is Rattus norvegicus. Kind of data set: Appetite suppressing activity in HFD-fed DIO rat model assessed as reduction in body weight administered subcutaneously once daily measured for 21 days. Format: functional, organism-based. The conditions noted are these: dose 0.7-22 nmol/kg, route sc, time 21.0 day.
Data set [22] has as its system Rattus norvegicus. Kind of data set: Appetite suppressing activity in HFD-fed DIO rat model assessed as reduction in fat mass administered subcutaneously once daily measured after 21 days. The conditions noted are these: dose 0.7-22 nmol/kg, route sc, time 21.0 day. It is filed as functional, organism-based.
The test system of data set [23] is Rattus norvegicus. Kind of data set: Appetite suppressing activity in HFD-fed DIO rat model assessed as reduction in body weight administered subcutaneously once daily measured after 21 days. Format: functional, organism-based. The conditions noted are these: dose 0.7-22 nmol/kg, route sc, time 21.0 day.
Data set [24] concerns Rattus norvegicus. Kind of data set: Effect on lean mass of HFD-fed DIO rat model at 0.7 to 22 nmol/kg, sc qd measured after 21 days. The conditions noted are these: dose 0.7-22 nmol/kg, time 21.0 day. Format: functional, organism-based.

As a reminder, the IC50 is the concentration at which inhibition is half-maximal. What is called solubility is the concentration that dissolves in the medium under given conditions. As usually defined, the bioavailability is the share of a dose that reaches the circulation, judged against a reference dose that is usually intravenous. In the case of `CC[C@H](C)[C@H](NC(=O)[C@H](C)NC(=O)CNC(=O)[C@H](Cc1ccccc1)NC(=O)[C@H](CC(N)=O)NC(=O)[C@@H]1CCCN1C(=O)[C@H](CO)NC(=O)[C@H](CO)NC(=O)[C@H](Cc1c[nH]cn1)NC(=O)[C@H](CCCNC(=N)N)NC(=O)[C@H](CC(C)C)NC(=O)[C@H](Cc1ccccc1)NC(=O)[C@H](CC(=O)O)NC(=O)[C@H](C)NC(=O)[C@H](CC(C)C)NC(=O)[C@H](CCCNC(=N)N)NC(=O)[C@H](CCC(N)=O)NC(=O)[C@@H](NC(=O)[C@H](C)NC(=O)[C@@H]1CSSC[C@H](NC(=O)[C@@H](N)CCCCN)C(=O)N[C@@H](CC(N)=O)C(=O)N[C@@H]([C@@H](C)O)C(=O)N[C@@H](C)C(=O)N[C@@H]([C@@H](C)O)C(=O)N1)[C@@H](C)O)C(=O)N1CCC[C@H]1C(=O)N[C@@H](CO)C(=O)N[C@@H](CO)C(=O)N[C@H](C(=O)N[C@@H](CC(N)=O)C(=O)N[C@H](C(=O)NCC(=O)N[C@@H](CO)C(=O)N[C@@H](CCCNC(=N)N)C(=O)N[C@H](C(=O)N[C@@H](Cc1ccc(O)cc1)C(N)=O)[C@@H](C)O)C(C)C)[C@@H](C)O`, the IC50 in [1] was 0.561 nM; at Calcitonin receptor [2] it was 42 nM; in data set [3] it was 0.29 nM; on Calcitonin receptor [4], 135 nM. Besides, the solubility in data set [5] and in data set [6] was no less than 200 µM throughout. Further, the Activity with Rattus norvegicus [7] is 70%; in the data set on Rattus norvegicus [8] it was 50%; with Rattus norvegicus [12], “Dose-Dependent Effect”; with Canis familiaris [14] it was 90%; in data set [16], “Non-Toxic”; in the data set on Rattus norvegicus [18], 4.7%. For the same molecule, the Activity in the data set on Rattus norvegicus [19] was 8.7%; with Rattus norvegicus [21] it was “Dose-Dependent Effect”; in the data set with Rattus norvegicus [22], “Dose-Dependent Effect”; with Rattus norvegicus [23], “Dose-Dependent Effect”. Also, the bioavailability in [9] was roughly 40%. Moreover, the half-life was roughly 50 h in data set [10] and roughly 115 h in data set [11]. For the same molecule, the result in the data set on Canis familiaris [13], with Rattus norvegicus [20] and with Rattus norvegicus [24] was inactive. For the same molecule, the outcome in the data set on Canis familiaris [15] and in the data set with Rattus norvegicus [17] was Active.
